Among the data in PubChem BioAssay (NCI) are TGI and GI50 values, retold here.

Where “and” joins values, the source holds several entries; their conditions need not be identical. Equal values may be shown once.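 Briefly, cells in 96-well plates were exposed to five compound concentrations for 48 h, and endpoints were estimated by linear interpolation. GI50 marks 50% less growth. TGI marks complete inhibition of growth.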

Test systems include A549 NSCLC; HT29 colon; K-562 leukemia; LOX IMVI melanoma; M14 melanoma; MDA-MB-231 breast; MDA-N; NCI-H522 lung; PC-3 prostate; SF-295 CNS; SF-539 CNS; SK-MEL-28 melanoma; SW-620 colon; TK-10 renal; COLO 205 colon.
Common to all, as to test: DTP human tumour cell line panel, 48 h

As for `COc1ccc(-c2c(C#N)c(N)n(C3OCC(O)C(O)C3O)c(=S)c2C#N)cc1` (stereo unspecified), the TGI in the experiment with A549 NSCLC, with HT29 colon, in the experiment with K-562 leukemia, with LOX IMVI melanoma, in the experiment with M14 melanoma and in the experiment on MDA-MB-231 breast was above 100 µM in each case. Besides, the TGI in the experiment on MDA-N, in the experiment with NCI-H522 lung, with PC-3 prostate, with SF-295 CNS, in the experiment with SF-539 CNS and with SK-MEL-28 melanoma was above 100 µM in each case. For the same compound, the TGI with SW-620 colon and in the experiment on TK-10 renal was above 100 µM each time.

On to `CN(C)Cc1cc(N=Nc2c(Cl)cccc2Cl)ccc1O`, for which the TGI with A549 NSCLC, with COLO 205 colon, with HT29 colon, with K-562 leukemia, in the experiment on LOX IMVI melanoma and in the experiment with MDA-MB-231 breast was above 100 µM in each case. The TGI with MDA-N, with NCI-H522 lung, in the experiment on PC-3 prostate, in the experiment with SF-295 CNS, in the experiment on SF-539 CNS and in the experiment on SK-MEL-28 melanoma was above 100 µM throughout. Moreover, the TGI with SW-620 colon and with TK-10 renal was above 100 µM each time.

As to `[N-]=[N+]=NC1(c2ccccc2)C(=O)c2cccc3c4ccccc4n(c23)C1=O` (stereo unspecified), the TGI – broadly, the concentration at which net growth stops – with A549 NSCLC is above 100 µM; in the experiment with COLO 205 colon, 38.7 µM; in the experiment on HT29 colon it was 50.8 µM; in the experiment with LOX IMVI melanoma it was above 100 µM; in the experiment with M14 melanoma, above 100 µM; in the experiment with MDA-MB-231 breast it was above 100 µM. The TGI in the experiment on MDA-N, in the experiment on NCI-H522 lung, in the experiment on PC-3 prostate, in the experiment with SF-295 CNS, with SF-539 CNS and in the experiment on SK-MEL-28 melanoma was above 100 µM throughout. Moreover, the TGI with SW-620 colon and in the experiment on TK-10 renal was above 100 µM in each case.

`CC[C@@]1(O)C(=O)OCc2c1cc1n(c2=O)Cc2c-1nc1ccccc1c2C=Nc1ccc(N[C@@H]2c3cc4c(cc3[C@@H](c3cc(OC)c(O)c(OC)c3)[C@H]3C(=O)OC[C@@H]32)OCO4)cc1`: the TGI with A549 NSCLC was 15.6 µM and 1.84 µM; in the experiment on COLO 205 colon, > 100 µM and 35.8 µM; in the experiment with HT29 colon, above 100 µM; in the experiment on K-562 leukemia it was 19.3 µM and 10.3 µM; in the experiment on M14 melanoma, 0.742 µM and 0.253 µM; in the experiment with MDA-MB-231 breast, 18.4 µM and 4.06 µM. In addition, the TGI in the experiment with MDA-N is 27.6 µM and 3.4 µM; in the experiment on NCI-H522 lung it was above 100 µM; with PC-3 prostate it was above 100 µM; in the experiment on SF-295 CNS, 8.02 µM and 15.9 µM; with SF-539 CNS, 0.132 µM; in the experiment on SK-MEL-28 melanoma, above 100 µM. Further, the total growth inhibition concentration (TGI) was 55.7 µM and > 100 µM in the experiment with SW-620 colon; 28.5 µM and 3.33 µM in the experiment on TK-10 renal. The concentration for 50% growth inhibition (GI50) (usually the concentration that inhibits growth by half) was 0.364 µM and 0.104 µM in the experiment with HT29 colon; 0.351 µM and 0.0613 µM in the experiment with MDA-N; 0.822 µM and 0.0864 µM in the experiment on PC-3 prostate; 0.0619 µM and 0.0503 µM in the experiment with SF-295 CNS; 2.16 µM and 0.815 µM with TK-10 renal.

As for `Cc1cc(Cl)ccc1NC(=O)/C(Cc1nc2ccc(C(=O)c3ccccc3)cc2[nH]c1=O)=N/NC(=O)c1ccncc1`, the TGI in the experiment on A549 NSCLC, in the experiment on HT29 colon, with K-562 leukemia, in the experiment on LOX IMVI melanoma, in the experiment on M14 melanoma and in the experiment on MDA-MB-231 breast was above 100 µM in each case. In addition, the TGI in the experiment with MDA-N, in the experiment on NCI-H522 lung, in the experiment with PC-3 prostate, in the experiment on SF-295 CNS, in the experiment on SF-539 CNS and in the experiment with SK-MEL-28 melanoma was above 100 µM each time. In addition, the TGI in the experiment with SW-620 colon and with TK-10 renal was above 100 µM throughout.

Consider `O=C(/C=C/c1ccsc1)c1cccs1`, for which the TGI in the experiment with A549 NSCLC is above 100 µM; in the experiment on COLO 205 colon it was 94.2 µM; in the experiment with HT29 colon, above 100 µM; in the experiment on K-562 leukemia, above 100 µM; with M14 melanoma it was 54.4 µM; with MDA-MB-231 breast, above 100 µM. Besides, the TGI was above 100 µM in the experiment with MDA-N; 39.4 µM in the experiment with NCI-H522 lung; above 100 µM in the experiment with PC-3 prostate; above 100 µM in the experiment with SF-295 CNS; above 100 µM in the experiment with SF-539 CNS; 46.1 µM in the experiment with SK-MEL-28 melanoma. Besides, the values for the TGI with SW-620 colon and in the experiment with TK-10 renal were 32.3 µM and above 100 µM, respectively.

With `CNc1nc2c(C)ccc3nc(N(C)C)nc-3c2n1C`, the TGI in the experiment on A549 NSCLC, in the experiment with COLO 205 colon, with HT29 colon, in the experiment on K-562 leukemia, in the experiment on M14 melanoma and with MDA-MB-231 breast was above 10 µM in each case. Moreover, the TGI in the experiment on MDA-N, in the experiment with NCI-H522 lung, with PC-3 prostate, with SF-295 CNS, in the experiment on SF-539 CNS and in the experiment on SK-MEL-28 melanoma was above 10 µM each time. For the same compound, the TGI with SW-620 colon and in the experiment on TK-10 renal was above 10 µM in each case.

For `O=c1[nH]nc(Cc2ccccc2)n1N=C1CCCCC1`, the TGI with A549 NSCLC, with COLO 205 colon, in the experiment on HT29 colon, with K-562 leukemia, in the experiment on LOX IMVI melanoma and with M14 melanoma was above 100 µM throughout. For the same compound, the TGI in the experiment with MDA-MB-231 breast, in the experiment on MDA-N, in the experiment with NCI-H522 lung, in the experiment with PC-3 prostate, with SF-295 CNS and in the experiment on SK-MEL-28 melanoma was above 100 µM throughout. The TGI in the experiment on SW-620 colon and in the experiment with TK-10 renal was above 100 µM throughout.

Turning to `Nc1nc([O-])c([I+]c2ccccc2)c(=O)[nH]1`, the TGI in the experiment with A549 NSCLC, in the experiment on COLO 205 colon, with HT29 colon, with K-562 leukemia, in the experiment with LOX IMVI melanoma and in the experiment on MDA-MB-231 breast was above 100 µM in each case. Moreover, the TGI in the experiment on MDA-N, in the experiment on NCI-H522 lung, in the experiment with PC-3 prostate, with SF-295 CNS, in the experiment on SF-539 CNS and in the experiment with SK-MEL-28 melanoma was above 100 µM each time. The TGI in the experiment on SW-620 colon and in the experiment with TK-10 renal was above 100 µM in each case.
